According to patent publication US20240226310A1, “Lipid Nanoparticle Therapeutics that Evade the Immune Response” (The Trustees of the University of Pennsylvania, priority 2021, published 2024):

System: pro-inflammatory cytokines
Experiment: Pro-inflammatory cytokines in systemic mouse model of inflammation (IV-LPS)
Format: in vivo, mice
[1] = removal of macrophages, LPS-treated mice which received LNP-mRNAs

`O=P(O)(O)C(Cl)(Cl)P(=O)(O)O` [Clodronate] was tested, and the systemic pro-inflammatory cytokines/markers (IV treatment, LPS model of systemic inflammation) was “reduces systemic pro-inflammatory markers”, the IL-6 in blood [1] was “significantly lowered” and the “MIP-2 in liver homogenate” value [1] was “significantly lowered”.
